Experiments:
[1] = biological target: T1, adenosine deaminase (ADA) (Bos taurus, UniProt P56658); assay: biochemical
T1 sequence (P56658 2-363): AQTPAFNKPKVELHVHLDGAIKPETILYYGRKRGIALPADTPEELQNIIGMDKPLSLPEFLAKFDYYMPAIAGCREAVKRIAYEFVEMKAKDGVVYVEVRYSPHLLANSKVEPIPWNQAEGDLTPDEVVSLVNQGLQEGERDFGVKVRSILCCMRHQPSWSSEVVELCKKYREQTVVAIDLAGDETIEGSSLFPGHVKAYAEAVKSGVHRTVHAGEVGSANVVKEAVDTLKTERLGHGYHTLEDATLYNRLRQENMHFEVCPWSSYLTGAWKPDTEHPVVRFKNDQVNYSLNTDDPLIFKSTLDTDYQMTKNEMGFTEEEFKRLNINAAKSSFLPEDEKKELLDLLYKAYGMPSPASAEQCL

[2] = biological target: T1, adenosine deaminase (ADA); assay: fluorescence assay of tzA to tzI deamination, IC50 with Hill fit; format: biochemical
[3] = biological target: T1, adenosine deaminase (ADA); assay: as above; format: biochemical; remark: listed apart in the source
[4] = biological target: T1, adenosine deaminase (ADA); assay: stopped-flow fluorescence kinetics of deamination to tzG; format: biochemical

SMILES: CCCCCC[C@H]([C@H](C)O)n1cnc2c(N)ncnc21 [EHNA]
- IC50 [1]: 0.0232 ± 0.0042 µM

SMILES: CNc1cc(Cl)nc2c1ncn2[C@@H]1O[C@H](CO)[C@@H](O)[C@H]1O [compound 8, 5-chloro-7-methylamino-1-deaza-purine riboside]
- IC50 [2]: 21 ± 8 µM

SMILES: OC[C@H]1O[C@@H](n2cnc3c(NCc4ccccc4)cc(Cl)nc32)[C@H](O)[C@@H]1O [compound 11, 5-chloro-7-benzylamino-1-deaza-purine riboside]
- IC50 [3]: 220 ± 70 µM

SMILES: Nc1nc(N)c2nsc([C@@H]3O[C@H](CO)[C@@H](O)[C@H]3O)c2n1 [tz2-AA]
- stopped-flow fluorescence kinetics of deamination to tzG [4]: the ^tz2-AA HMM curve showed parabolic behaviour with increasing substrate concentration
